Test results reported in patent US20070254956A1, “Medicament for Therapeutic and/or Preventive Treatment of Restenosis or Reocclusion After Vascular Recanalization Operation” (priority 2003, published 2007).

Tested on: proliferation of neointima
Assay: Test for inhibition of proliferation of neointima in a mouse model of femoral arterial angiopathy
Format: in vivo
Details: male C57BL/6 mouse, 1 mg/kg/day intraperitoneally for 10 days
Protocol: As an angiopathy model resulting from a vascular recanalization operation, a treatment was carried out in which 0.015 inch spring wires were implanted into both […] of 20-25 g male C57BL/6 mouse under anesthesia, and placed for 1 minute to extend the arteries. After the operation, the compound represented by the formula (I) was administered 1 mg/kg/day intraperitoneally for 10 days. Blood vessels were extirpated 4 weeks after the operation and histopathologically examined. Influences between the drug administered group and non-administered group on the cross-section ratio of neointima and tunica media (neointima/tunica media) were compared.

## O=C(Nc1cc(C(F)(F)F)cc(C(F)(F)F)c1)c1cc(Cl)ccc1O [compound (I)]
wire-injured femoral arteries, vessels examined 4 weeks after operation, non-administered group 2.01±0.15
  cross-section ratio of neointima and tunica media (neointima/tunica media): 1.01±0.27
4 weeks after operation
  inhibition of the proliferation of neointima after the angiopathy: strongly inhibited the proliferation of neointima
